Measured values taken from patent US9376418B2, “Substituted pyridine spleen tyrosine kinase (SYK) inhibitors” (Merck Sharp & Dohme Corp., priority 2012, dated 2016).
pIC50: −log10 of the molar value.

What follows are compounds tested against T1, recombinant human GST-SYK (Homo sapiens, UniProt P43405) (assay: Homogeneous Time-Resolved Fluorescence (HTRF) assay for the recombinant human Syk enzyme). Settings: HTRF assay, recombinant human GST-SYK; IC50 given as class symbols; read-out: rhSYK Activity.
T1 construct: purchased Carna Biosciences 08-176
Format: biochemical
Summary of the method: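 GST-hSYK ([…]) was preincubated with inhibitor (0.1% DMSO) for 10 min at room temperature in Tris-HCl pH 7.5 with tween 20 and DTT. Biotinylated peptide (250 nM), Mg (5 mM) and ATP (25 μM) were added for 45 min. The reaction was quenched with EDTA, and phosphotyrosine was read by Eu-antibody/SA-APC HTRF after 30 min.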

pIC50 | Structure (SMILES)
> 7.00 | Cc1cc(Nc2nccc(C(F)(F)F)n2)cc(-c2ccnc(N[C@@H](C)CO)c2)c1 [Example 15.48, (2S)-2-{[4-(3-methyl-5-{[4-(trifluoromethyl)pyrimidin-2-yl]amino}phenyl)pyridin-2-yl]amino}propan-1-ol]
> 7.00 | Cc1cc(Nc2nccc(C(F)(F)F)n2)cc(-c2ccnc(N3CC(O)C3)c2)c1 [Example 15.53, 1-[4-(3-methyl-5-{[4-(trifluoromethyl)pyrimidin-2-yl]amino}phenyl)pyridin-2-yl] azetidin-3-ol]
> 7.00 | CC(=O)NCCNc1cc(-c2cc(C)cc(Nc3nccc(C(F)(F)F)n3)c2)ccn1 [Example 15.54, N-(2-{[4-(3-methyl-5-{[4-(trifluoromethyl)pyrimidin-2-yl]amino}phenyl)pyridin-2-yl]amino}ethyl)acetamide]
> 7.00 | Cc1cc(Nc2nccc(C(F)(F)F)n2)cc(-c2ccnc(N3CCCC3C(N)=O)c2)c1 (stereo not shown) [Example 15.55, 1-[4-(3-methyl-5-{[4-(trifluoromethyl)pyrimidin-2-yl]amino}phenyl)pyridin-2-yl] prolinamide]
6.00 to 7.00 | CNC(=O)C1CCN(c2cc(-c3cc(C)cc(Nc4nccc(C(F)(F)F)n4)c3)ccn2)CC1 [Example 15.58, N-methyl-1-[4-(3-methyl-5-{[4-(trifluoromethyl)pyrimidin-2-yl]amino}phenyl)pyridin-2-yl]piperidine-4-carboxamide]
> 7.00 | Cc1cc(Nc2nccc(C(F)(F)F)n2)cc(-c2ccnc(NCCC(N)=O)c2)c1 [Example 15.59, N~3~-[4-(3-methyl-5-{[4-(trifluoromethyl)pyrimidin-2-yl]amino}phenyl)pyridin-2-yl]-beta-alaninamide]
6.00 to 7.00 | Cc1cc(Nc2nccc(C(F)(F)F)n2)cc(-c2ccnc(N3CCN(S(C)(=O)=O)CC3)c2)c1 [Example 15.63, N-(3-methyl-5-{2-[4-(methylsulfonyl)piperazin-1-yl]pyridin-4-yl}phenyl)-4-(trifluoromethyl)pyrimidin-2-amine]
6.00 to 7.00 | CC(=O)NCCN(C)c1cc(-c2cc(C)cc(Nc3nccc(C(F)(F)F)n3)c2)ccn1 [Example 15.65, N-(2-{methyl[4-(3-methyl-5-{[4-(trifluoromethyl)pyrimidin-2-yl]amino}phenyl)pyridin-2-yl]amino}ethyl)acetamide]
> 7.00 | Cc1cc(Nc2nccc(C(F)(F)F)n2)cc(-c2ccnc(N[C@@H]3CCC(=O)NC3)c2)c1 [Example 15.66, (5R)-5-{[4-(3-methyl-5-{[4-(trifluoromethyl)pyrimidin-2-yl]amino}phenyl)pyridin-2-yl]amino}piperidin-2-one]
> 7.00 | Cc1cc(Nc2nccc(C(F)(F)F)n2)cc(-c2ccnc(NCC(C)O)c2)c1 (stereo not shown) [Example 15.72, 1-{[4-(3-methyl-5-{[4-(trifluoromethyl)pyrimidin-2-yl]amino}phenyl)pyridin-2-yl]amino}propan-2-ol]
6.00 to 7.00 | COCC1CCN(c2cc(-c3cc(C)cc(Nc4nccc(C(F)(F)F)n4)c3)ccn2)C1 (stereo not shown) [Example 15.77, N-(3-{2-[3-(methoxymethyl)pyrrolidin-1-yl]pyridin-4-yl}-5-methylphenyl)-4-(trifluoromethyl)pyrimidin-2-amine]
6.00 to 7.00 | CC(=O)NCCCNc1cc(-c2cc(C)cc(Nc3nccc(C(F)(F)F)n3)c2)ccn1 [Example 15.80, N-(3-{[4-(3-methyl-5-{[4-(trifluoromethyl)pyrimidin-2-yl]amino}phenyl)pyridin-2-yl]amino}propyl)acetamide]

More lines, now with the values behind:

Structure (SMILES) | pIC50
Cc1cc(Nc2nccc(C(F)(F)F)n2)cc(-c2ccnc(N3CCN(C)C(=O)C3)c2)c1 [Example 15.47, 1-methyl-4-[4-(3-methyl-5-{[4-(trifluoromethyl)pyrimidin-2-yl]amino}phenyl)pyridin-2-yl]piperazin-2-one] | > 7.00
Cc1cc(Nc2nccc(C(F)(F)F)n2)cc(-c2ccnc(NC(C)(CO)CO)c2)c1 [Example 15.49, 2-methyl-2-{[4-(3-methyl-5-{[4-(trifluoromethyl)pyrimidin-2-yl]amino}phenyl)pyridin-2-yl]amino}propane-1,3-diol] | > 7.00
Cc1cc(Nc2nccc(C(F)(F)F)n2)cc(-c2ccnc(NC3(CO)CCCC3)c2)c1 [Example 15.50, (1-{[4-(3-methyl-5-{[4-(trifluoromethyl)pyrimidin-2-yl]amino}phenyl)pyridin-2-yl]amino}cyclopentyl)methanol] | > 7.00
Cc1cc(Nc2nccc(C(F)(F)F)n2)cc(-c2ccnc(NC(C)(C)CO)c2)c1 [Example 15.51, 2-methyl-2-{[4-(3-methyl-5-{[4-(trifluoromethyl)pyrimidin-2-yl]amino}phenyl)pyridin-2-yl]amino}propan-1-ol] | > 7.00
Cc1cc(Nc2nccc(C(F)(F)F)n2)cc(-c2ccnc(NC[C@@H](C)O)c2)c1 [Example 15.52, (2R)-1-{[4-(3-methyl-5-{[4-(trifluoromethyl)pyrimidin-2-yl]amino}phenyl)pyridin-2-yl]amino}propan-2-ol] | > 7.00
Cc1cc(Nc2nccc(C(F)(F)F)n2)cc(-c2ccnc(NC3(CO)CC3)c2)c1 [Example 15.56, (1-{[4-(3-methyl-5-{[4-(trifluoromethyl)pyrimidin-2-yl]amino}phenyl)pyridin-2-yl]amino}cyclopropyl)methanol] | > 7.00
Cc1cc(Nc2nccc(C(F)(F)F)n2)cc(-c2ccnc(N(C)CCC3OCCO3)c2)c1 [Example 15.57, N-[3-(2-{[2-(1,3-dioxolan-2-yl)ethyl](methyl)amino}pyridin-4-yl)-5-methylphenyl]-4-(trifluoromethyl)pyrimidin-2-amine] | 6.00 to 7.00
Cc1cc(Nc2nccc(C(F)(F)F)n2)cc(-c2ccnc(NCC(C)(C)O)c2)c1 [Example 15.60, 2-methyl-1-{[4-(3-methyl-5-{[4-(trifluoromethyl)pyrimidin-2-yl]amino}phenyl)pyridin-2-yl]amino}propan-2-ol] | 6.00 to 7.00
Cc1cc(Nc2nccc(C(F)(F)F)n2)cc(-c2ccnc(N3CCN(C)CC3)c2)c1 [Example 15.61, N-{3-methyl-5-[2-(4-methylpiperazin-1-yl)pyridin-4-yl]phenyl}-4-(trifluoromethyl)pyrimidin-2-amine] | 6.00 to 7.00
Cc1cc(Nc2nccc(C(F)(F)F)n2)cc(-c2ccnc(NC3COC3)c2)c1 [Example 15.62, N-{3-methyl-5-[2-(oxetan-3-ylamino)pyridin-4-yl]phenyl}-4-(trifluoromethyl)pyrimidin-2-amine] | 6.00 to 7.00
CCN1CCN(c2cc(-c3cc(C)cc(Nc4nccc(C(F)(F)F)n4)c3)ccn2)CC1 [Example 15.64, N-{3-[2-(4-ethylpiperazin-1-yl)pyridin-4-yl]-5-methylphenyl}-4-(trifluoromethyl)pyrimidin-2-amine] | 6.00 to 7.00
Cc1cc(Nc2nccc(C(F)(F)F)n2)cc(-c2ccnc(N[C@H]3CCC(=O)NC3)c2)c1 [Example 15.67, (5S)-5-{[4-(3-methyl-5-{[4-(trifluoromethyl)pyrimidin-2-yl]amino}phenyl)pyridin-2-yl]amino}piperidin-2-one] | > 7.00
Cc1cc(Nc2nccc(C(F)(F)F)n2)cc(-c2ccnc(N3CCCC(F)(F)C3)c2)c1 [Example 15.68, N-{3-[2-(3,3-difluoropiperidin-1-yl)pyridin-4-yl]-5-methylphenyl}-4-(trifluoromethyl)pyrimidin-2-amine] | 6.00 to 7.00
COCC1CCCN1c1cc(-c2cc(C)cc(Nc3nccc(C(F)(F)F)n3)c2)ccn1 (stereo not shown) [Example 15.69, N-(3-{2-[2-(methoxymethyl)pyrrolidin-1-yl]pyridin-4-yl}-5-methylphenyl)-4-(trifluoromethyl)pyrimidin-2-amine] | 6.00 to 7.00
Cc1cc(Nc2nccc(C(F)(F)F)n2)cc(-c2ccnc(N3CCC(F)(F)CC3)c2)c1 [Example 15.70, N-{3-[2-(4,4-difluoropiperidin-1-yl)pyridin-4-yl]-5-methylphenyl}-4-(trifluoromethyl)pyrimidin-2-amine] | 6.00 to 7.00
Cc1cc(Nc2nccc(C(F)(F)F)n2)cc(-c2ccnc(N3CC(C)NC(C)C3)c2)c1 (stereo not shown) [Example 15.71, N-{3-[2-(3,5-dimethylpiperazin-1-yl)pyridin-4-yl]-5-methylphenyl}-4-(trifluoromethyl)pyrimidin-2-amine] | > 7.00
Cc1cc(Nc2nccc(C(F)(F)F)n2)cc(-c2ccnc(N3CCC[C@H]3C(N)=O)c2)c1 [Example 15.73, 1-[4-(3-methyl-5-{[4-(trifluoromethyl)pyrimidin-2-yl]amino}phenyl)pyridin-2-yl]-L-prolinamide] | > 7.00
Cc1cc(Nc2nccc(C(F)(F)F)n2)cc(-c2ccnc(NC3CNC(=O)C3)c2)c1 (stereo not shown) [Example 15.74, 4-{[4-(3-methyl-5-{[4-(trifluoromethyl)pyrimidin-2-yl]amino}phenyl)pyridin-2-yl]amino}pyrrolidin-2-one] | > 7.00
CC(=O)N1CCCN(c2cc(-c3cc(C)cc(Nc4nccc(C(F)(F)F)n4)c3)ccn2)CC1 [Example 15.75, N-{3-[2-(4-acetyl-1,4-diazepan-1-yl)pyridin-4-yl]-5-methylphenyl}-4-(trifluoromethyl)pyrimidin-2-amine] | 6.00 to 7.00
CCCN1CCCN(c2cc(-c3cc(C)cc(Nc4nccc(C(F)(F)F)n4)c3)ccn2)CC1 [Example 15.76, N-{3-methyl-5-[2-(4-propyl-1,4-diazepan-1-yl)pyridin-4-yl]phenyl}-4-(trifluoromethyl)pyrimidin-2-amine] | > 7.00
CNC(=O)CCNc1cc(-c2cc(C)cc(Nc3nccc(C(F)(F)F)n3)c2)ccn1 [Example 15.78, N-methyl-N~3~-[4-(3-methyl-5-{[4-(trifluoromethyl)pyrimidin-2-yl]amino}phenyl)pyridin-2-yl]-beta-alaninamide] | 6.00 to 7.00
CCCOC1CCCN(c2cc(-c3cc(C)cc(Nc4nccc(C(F)(F)F)n4)c3)ccn2)C1 (stereo not shown) [Example 15.79, N-{3-methyl-5-[2-(3-propoxypiperidin-1-yl)pyridin-4-yl]phenyl}-4-(trifluoromethyl)pyrimidin-2-amine] | 5.00 to 6.00
